Experimental data taken from patent US12102607B2, “C5aR inhibitors for use in the treatment of chemotherapy-induced iatrogenic pain” (Dompe' Farmaceutici S.P.A., priority 2017, dated 2024).

Assays:
[1] = system: paclitaxel-induced cold allodynia in male Balb/C mice; experiment: Paclitaxel-induced cold allodynia, DF3966A; assay type: in vivo; settings: 30 mg/kg/os twice daily day 1 to 14; days 3, 5, 7, 10 and 14
Method: (§1) For the experiments with DF3966A, animals were housed in the animal care facility of the Department of Pharmacy of the University of Naples, Italy, in a room with controlled temperature (22±1° C.), humidity (60±10%) and light (12 h per day); food and water were available ad libitum. All behavioural tests were performed between 9:00 AM and 5:00 PM, and the animals were used only once. Animal care and manipulations were conducted in conformity with International and National law and policies (EU Directive 2010/63/EU for animal experiments, ARRIVE guidelines and the Basel declaration including the 3R concept). The procedure reported here were approved by the Institutional Committee on the Ethics of Animal Experiments (CVS) of the University of Naples Federico II and by Ministero della Salute under protocol n. 2014-00884607.
The protocol used was performed according POLOMANO et al., 2001, adapted to mice. The animals received paclitaxel 4 mg/kg intraperitoneally (i.p.) for four alternate days (days 1, 3, 5, and 7). During treatment period, mechanical and cold allodynia were measured 4 hours after the injection of paclitaxel. […]
In the same apparatus of von Frey test, and nearly 15 minutes after the mechanical test, was performed the acetone test. […] All movements as licking, flinching or lifting of paw were recorded with a chronometer in a total testing time of 2 minutes.

[2] = system: paclitaxel-induced mechanical allodynia in male Balb/C mice; experiment: Paclitaxel-induced mechanical allodynia, Dynamic Plantar Aesthesiometer, DF3966A; assay type: in vivo; settings: 30 mg/kg/os twice daily day 1 to 14; days 3, 5, 7, 10 and 14
Method: as §1
The protocol used was performed according POLOMANO et al., 2001, adapted to mice. The animals received paclitaxel 4 mg/kg intraperitoneally (i.p.) for four alternate days (days 1, 3, 5, and 7). During treatment period, mechanical and cold allodynia were measured 4 hours after the injection of paclitaxel.
DF3966A was administrated 30 mg/kg/os from 1st at 14th day (twice daily; 8.00 am and 20.00 pm). […]
In DF3966A experiments, sensitivity to tactile stimulation was measured using the Dynamic Plantar Aesthesiometer (DPA, Ugo Basile, Italy). […]

C[C@H](c1ccc(Nc2nc(C(F)(F)F)cs2)cc1)c1nnn[nH]1 [DF3966A, 1-N-[4-[(1R)-1-(1H-tetrazol-5-yl)ethyl]phenyl}-4-(trifluoromethyl)-11,3-thiazol-2-amine]
cold allodynia vs vehicle control animals [1]: significant reduction of cold allodynia | mechanical allodynia vs vehicle control animals [2]: significant reduction of mechanical allodynia
